In ChEMBL document CHEMBL3045941, “-Methyl as a bioisostere for the oxygen link between the aromatic rings of aryloxyphenoxypropionate herbicides” (Bioorg Med Chem Lett, 1997):
Activity calls are given as the source filed them. The calls are words filed in the database; no cut-off is given here.

Experiments:
Zea mays [1] = experiment: Phytotoxicity against Zea mays (maize) plant at two to four-leaf growth stage at 50 g/ha measured after 13 days under green house conditions; type: organism-based; conditions: in vivo, 312 h
Sorghum halepense [2] = experiment: Post-emergent herbicidal activity against Sorghum halepense (Johnson grass) at 50 g/ha measured after 13 days under green house conditions; type: functional
Triticum aestivum [3] = experiment: Phytotoxicity against Triticum aestivum (wheat) at two to four-leaf growth stage at 5 g/ha measured after 13 days under green house conditions; type: organism-based; conditions: in vivo, 312 h
Zea mays [4] = experiment: Phytotoxicity against Zea mays (maize) plant at two to four-leaf growth stage at 5 g/ha measured after 13 days under green house conditions; type: organism-based; conditions: in vivo, 312 h
Triticum aestivum [5] = experiment: Phytotoxicity against Triticum aestivum (wheat) at two to four-leaf growth stage at 50 g/ha measured after 13 days under green house conditions; type: organism-based; conditions: in vivo, 312 h
Sorghum halepense [6] = experiment: Post-emergent herbicidal activity against Sorghum halepense (Johnson grass) at <2 g/ha measured after 13 days under green house conditions; type: functional, organism-based
Zea mays [7] = experiment: Phytotoxicity against Zea mays (maize) plant at two to four-leaf growth stage at <2 g/ha measured after 13 days under green house conditions; type: organism-based; conditions: in vivo, 312 h
Sorghum halepense [8] = experiment: Post-emergent herbicidal activity against Sorghum halepense (Johnson grass) at 5 g/ha measured after 13 days under green house conditions; type: functional
Triticum aestivum [9] = experiment: Phytotoxicity against Triticum aestivum (wheat) at two to four-leaf growth stage at <2 g/ha measured after 13 days under green house conditions; type: organism-based; conditions: in vivo, 312 h
Oryza sativa [10] = experiment: Phytotoxicity against Oryza sativa (rice) plant at two to four-leaf growth stage at 50 g/ha measured after 13 days under green house conditions; type: organism-based; conditions: in vivo, 312 h
Avena fatua [11] = experiment: Post-emergent herbicidal activity against Avena fatua at 50 g/ha measured after 13 days under green house conditions; type: functional
Setaria viridis [12] = experiment: Post-emergent herbicidal activity against Setaria viridis (green foxtail) at <2 g/ha measured after 13 days under green house conditions; type: functional, organism-based
Oryza sativa [13] = experiment: Phytotoxicity against Oryza sativa (rice) plant at two to four-leaf growth stage at 5 g/ha measured after 13 days under green house conditions; type: organism-based; conditions: in vivo, 312 h
Echinochloa crus-galli [14] = experiment: Post-emergent herbicidal activity against Echinochloa crus-galli (barnyard grass) at 5 g/ha measured after 13 days under green house conditions; type: functional
Echinochloa crus-galli [15] = experiment: Post-emergent herbicidal activity against Echinochloa crus-galli (barnyard grass) at <2 g/ha measured after 13 days under green house conditions; type: functional, organism-based
Setaria viridis [16] = experiment: Post-emergent herbicidal activity against Setaria viridis (green foxtail) at 5 g/ha measured after 13 days under green house conditions; type: functional
Setaria viridis [17] = experiment: Post-emergent herbicidal activity against Setaria viridis (green foxtail) at 50 g/ha measured after 13 days under green house conditions; type: functional
Echinochloa crus-galli [18] = experiment: Post-emergent herbicidal activity against Echinochloa crus-galli (barnyard grass) at 50 g/ha measured after 13 days under green house conditions; type: functional
Oryza sativa [19] = experiment: Phytotoxicity against Oryza sativa (rice) plant at two to four-leaf growth stage at <2 g/ha measured after 13 days under green house conditions; type: organism-based; conditions: in vivo, 312 h
Avena fatua [20] = experiment: Post-emergent herbicidal activity against Avena fatua at <2 g/ha measured after 13 days under green house conditions; type: functional, organism-based
Avena fatua [21] = experiment: Post-emergent herbicidal activity against Avena fatua at 5 g/ha measured after 13 days under green house conditions; type: functional
Triticum aestivum [22] = experiment: Phytotoxicity against Triticum aestivum (wheat) plant at two to four-leaf growth stage at 500 g/ha measured after 13 days under green house conditions; type: organism-based; conditions: in vivo, 312 h
Sorghum halepense [23] = experiment: Post-emergent herbicidal activity against Sorghum halepense (Johnson grass) at 500 g/ha measured after 13 days under green house conditions; type: functional
Echinochloa crus-galli [24] = experiment: Post-emergent herbicidal activity against Echinochloa crus-galli (barnyard grass) at 500 g/ha measured after 13 days under green house conditions; type: functional
Avena fatua [25] = experiment: Post-emergent herbicidal activity against Avena fatua at 500 g/ha measured after 13 days under green house conditions; type: functional
Zea mays [26] = experiment: Phytotoxicity against Zea mays (maize) plant at two to four-leaf growth stage at 500 g/ha measured after 13 days under green house conditions; type: organism-based; conditions: in vivo, 312 h
Setaria viridis [27] = experiment: Post-emergent herbicidal activity against Setaria viridis (green foxtail) at 500 g/ha measured after 13 days under green house conditions; type: functional
Oryza sativa [28] = experiment: Phytotoxicity against Oryza sativa (rice) plant at two to four-leaf growth stage at 500 g/ha measured after 13 days under green house conditions; type: organism-based; conditions: in vivo, 312 h

Structure (SMILES) | Activity (Sorghum halepense [6]) | Activity (Zea mays [7]) | Activity (Triticum aestivum [9]) | Activity (Setaria viridis [12]) | Activity (Echinochloa crus-galli [15]) | Activity (Oryza sativa [19]) | Activity (Avena fatua [20]) | Activity (Triticum aestivum [22]) | Activity (Sorghum halepense [23]) | Activity (Echinochloa crus-galli [24]) | Activity (Avena fatua [25]) | Activity (Zea mays [26]) | Activity (Setaria viridis [27]) | Activity (Oryza sativa [28]) | other results
COC(=O)C(C)Oc1ccc(N(C)c2nnc3cc(Cl)ccc3n2)cc1 (racemic) | inactive | Non-toxic | Non-toxic | inactive | inactive | Non-toxic | inactive | – | – | – | – | – | – | – | Activity (Zea mays [1]): 85%; Activity (Sorghum halepense [2]): 100%; Activity (Triticum aestivum [3]): 70%; Activity (Zea mays [4]): 70%; Activity (Triticum aestivum [5]): 85%; Activity (Sorghum halepense [8]): 50%; Activity (Oryza sativa [10]): 85%; Activity (Avena fatua [11]): 85%; Activity (Oryza sativa [13]): 0%; Activity (Echinochloa crus-galli [14]): 0%; Activity (Setaria viridis [16]): 100%; Activity (Setaria viridis [17]): 100%; Activity (Echinochloa crus-galli [18]): 100%; Activity (Avena fatua [21]): 50%
CCOC(=O)C(C)Oc1ccc(Oc2cc3ccc(Cl)cc3cn2)cc1 (racemic) | inactive | Non-toxic | Non-toxic | inactive | inactive | Non-toxic | inactive | 85% | 100% | 100% | 85% | 70% | 85% | 70% | –
CCCCOC(=O)C(C)Oc1ccc(Oc2ccc(C(F)(F)F)cn2)cc1 (racemic) | inactive | Non-toxic | Non-toxic | inactive | inactive | Non-toxic | inactive | – | – | – | – | – | – | – | Activity (Zea mays [1]): 85%; Activity (Sorghum halepense [2]): 85%; Activity (Triticum aestivum [5]): 70%; Activity (Oryza sativa [10]): 50%; Activity (Avena fatua [11]): 85%; Activity (Setaria viridis [17]): 85%; Activity (Echinochloa crus-galli [18]): 85%
CCOC(=O)C(C)Oc1ccc(N(C)c2cnc3cc(Cl)ccc3n2)cc1 (racemic) | inactive | Non-toxic | Non-toxic | inactive | inactive | Non-toxic | inactive | 85% | 85% | 85% | 0% | 50% | 85% | 0% | –
COC(=O)C(C)Oc1ccc(Oc2ccc3cc(Cl)ccc3n2)cc1 (racemic) | inactive | Non-toxic | Non-toxic | inactive | inactive | Non-toxic | inactive | 85% | 100% | 100% | 85% | 100% | 100% | 85% | –
COC(=O)C(C)Oc1ccc(Oc2ccc(Cl)cc2Cl)cc1 (racemic) [DICLOFOP-METHYL] | inactive | Non-toxic | Non-toxic | inactive | inactive | Non-toxic | inactive | 0% | 70% | 100% | 70% | 85% | 100% | 0% | –
COC(=O)C(C)Oc1ccc(N(C)c2ccc3cc(Cl)ccc3n2)cc1 (racemic) | inactive | Non-toxic | Non-toxic | inactive | inactive | Non-toxic | inactive | 85% | 100% | 100% | 70% | 100% | 85% | 30% | –
